According to ChEMBL document CHEMBL4813985, “Lead optimization generates selenium-containing miconazole CYP51 inhibitors with improved pharmacological profile for the treatment of fungal infections” (Eur J Med Chem, 2021):
≈ marks a conversion by molar mass, not a printed value.

Key:
Candida albicans [1] = experiment: Antifungal activity against Candida albicans CPCC400616 measured after 24 hrs by broth microdilution assay; assay type: functional
Candida albicans [2] = experiment: Antifungal activity against Candida albicans ATCC SC5314 measured after 24 hrs by broth microdilution assay; assay type: functional
[Candida] zeylanoides = Antifungal activity against Candida zeylanoides CMGCC2.3739 measured after 24 hrs by broth microdilution assay; assay type: functional; conditions: Dujonia zeylanoides
Cryptococcus neoformans = experiment: Antifungal activity against Cryptococcus neoformans CMGCC2.3161 measured after 72 hrs by broth microdilution assay; assay type: functional
Pichia kudriavzevii = experiment: Antifungal activity against Candida krusei AS2.1045 measured after 24 hrs by broth microdilution assay; assay type: functional
Nakaseomyces glabratus = experiment: Antifungal activity against Candida glabrata measured after 24 hrs by broth microdilution assay; assay type: functional
Candida parapsilosis = experiment: Antifungal activity against Candida parapsilosis ATCC 22019 measured after 24 hrs by broth microdilution assay; assay type: functional; conditions: Lodderomyces parapsilosis
Aspergillus fumigatus = experiment: Antifungal activity against Aspergillus fumigatus CMGCC3.7795 measured after 72 hrs by broth microdilution assay; assay type: functional
Candida albicans [3] = experiment: Antifungal activity against fluconazole-resistant Candida albicans CaR assessed as inhibition of microbial growth after 24 hrs by broth microdilution method; assay type: functional
Candida albicans [4] = experiment: Antifungal activity against fluconazole-resistant Candida albicans 17# assessed as inhibition of microbial growth after 24 hrs by broth microdilution method; assay type: functional
Candida albicans [5] = experiment: Antifungal activity against fluconazole-resistant Candida albicans 632 assessed as inhibition of microbial growth after 24 hrs by broth microdilution method; assay type: functional
Candida albicans [6] = experiment: Antifungal activity against fluconazole-resistant Candida albicans 901 assessed as inhibition of microbial growth after 24 hrs by broth microdilution method; assay type: functional
Candida albicans [7] = experiment: Antifungal activity against fluconazole-resistant Candida albicans 904 assessed as inhibition of microbial growth after 24 hrs by broth microdilution method; assay type: functional
HL-60 = experiment: Cytotoxicity against human HL-60 cells assessed as reduction in cell viability incubated for 96 hrs by MTT assay; assay type: cell-based; conditions: HL-60, 96 h
MDA-MB-231 = experiment: Cytotoxicity against human MDA-MB-231 cells assessed as reduction in cell viability incubated for 96 hrs by MTT assay; conditions: MDA-MB-231, 96 h
PC-3 = experiment: Cytotoxicity against human PC3 cells assessed as reduction in cell viability incubated for 96 hrs by MTT assay; assay type: cell-based; conditions: PC-3, 96 h, read-out: IC50
MCF-10A = experiment: Cytotoxicity against human MCF-10A cells assessed as reduction in cell viability incubated for 96 hrs by MTT assay; assay type: cell-based; conditions: read-out: IC50
[8] = Hemolytic activity in rabbit RBC assessed as hemolysis ratio at 1 ug/ml measured after 3 hrs by microplate reader assay relative to control; assay type: ADME, cell-based, Oryctolagus cuniculus, Erythrocyte; conditions: rabbit red blood cells (erythrocytes), at 1 µg/mL, read-out: Activity
[9] = Hemolytic activity in rabbit RBC assessed as hemolysis ratio at 2 ug/ml measured after 3 hrs by microplate reader assay relative to control; assay type: ADME, cell-based, Oryctolagus cuniculus, Erythrocyte; conditions: rabbit red blood cells (erythrocytes), at 2 µg/mL, read-out: Activity
[10] = Hemolytic activity in rabbit RBC assessed as hemolysis ratio at 4 ug/ml measured after 3 hrs by microplate reader assay relative to control; assay type: ADME, cell-based, Oryctolagus cuniculus, Erythrocyte; conditions: rabbit red blood cells (erythrocytes), at 4 µg/mL, read-out: Activity
[11] = Hemolytic activity in rabbit RBC assessed as hemolysis ratio at 8 ug/ml measured after 3 hrs by microplate reader assay relative to control; assay type: ADME, cell-based, Oryctolagus cuniculus, Erythrocyte; conditions: rabbit red blood cells (erythrocytes), at 8 µg/mL, read-out: Activity
[12] = Hemolytic activity in rabbit RBC assessed as hemolysis ratio at 16 ug/ml measured after 3 hrs by microplate reader assay relative to control; assay type: ADME, cell-based, Oryctolagus cuniculus, Erythrocyte; conditions: rabbit red blood cells (erythrocytes), at 16 µg/mL, read-out: Activity
[13] = Metabolic stability in mouse liver microsomes assessed as half life; assay type: ADME, Microsome
[14] = Metabolic stability in mouse liver microsomes assessed as clearance; assay type: ADME, Microsome; conditions: read-out: CLH
Candida albicans [15] = experiment: Fungicidal activity against Candida albicans CPCC400616 assessed as fungal killing incubated for 48 hrs followed by culturing on PDA plate for 24 hrs; assay type: functional; conditions: time 72 hrs
Candida albicans [16] = experiment: Anti-biofilm activity in Candida albicans CPCC400616 assessed as inhibition of biofilm formation incubated for 24 hrs with 1.5 hrs precultured fungal suspension by XTT assay; assay type: functional
Candida albicans [17] = experiment: Anti-biofilm activity in Candida albicans CPCC400616 assessed as inhibition of biofilm formation incubated for 24 hrs with 3 hrs precultured fungal suspension by XTT assay; assay type: functional
Candida albicans [18] = experiment: Anti-biofilm activity in Candida albicans CPCC400616 assessed as inhibition of biofilm formation incubated for 24 hrs with 6 hrs precultured fungal suspension by XTT assay; assay type: functional
Candida albicans [19] = experiment: Anti-biofilm activity in Candida albicans CPCC400616 assessed as inhibition of biofilm formation incubated for 24 hrs with 24 hrs precultured fungal suspension by XTT assay; assay type: functional
Candida albicans [20] = experiment: Potency index, ratio of fluconazole MIC to test compound MIC for Candida albicans CPCC400616 measured after 24 hrs by broth microdilution assay; assay type: functional

## CCc1ccccc1[Se]C(Cn1ccnc1)c1ccc(F)cc1F (centres undefined)
Candida albicans [1]
  MIC: 0.06 µg/mL (≈ 0.153 µM)
Candida albicans [2]
  MIC: 0.03 µg/mL (≈ 0.0767 µM)
[Candida] zeylanoides
  MIC: 0.25 µg/mL (≈ 0.639 µM)
Cryptococcus neoformans
  MIC: 1 µg/mL (≈ 2.56 µM)
Pichia kudriavzevii
  MIC: 0.06 µg/mL (≈ 0.153 µM)
Nakaseomyces glabratus
  MIC: 0.5 µg/mL (≈ 1.28 µM)
Candida parapsilosis
  MIC: 0.03 µg/mL (≈ 0.0767 µM)
Aspergillus fumigatus
  MIC: 16 µg/mL (≈ 40.9 µM)
Candida albicans [3]
  MIC: 0.5 µg/mL
Candida albicans [4]
  MIC: 0.5 µg/mL
Candida albicans [5]
  MIC: 1 µg/mL
Candida albicans [6]
  MIC: 2 µg/mL
Candida albicans [7]
  MIC: 0.5 µg/mL
HL-60
  IC50: 16.9 µM
MDA-MB-231
  IC50: 26.2 µM
PC-3
  IC50: 30.2 µM
MCF-10A
  IC50: 28.1 µM
[8]
  hemolysis at 3 h, 1 ug/ml: 0%
[9]
  hemolysis at 3 h, 2 ug/ml: 0%
[10]
  hemolysis at 3 h, 4 ug/ml: 93.6%
[11]
  hemolysis at 3 h, 8 ug/ml: 100%
[12]
  hemolysis at 3 h, 16 ug/ml: 100%
[13]
  half-life: 14.9 min
[14]
  CLint scaled: 368 mL/min/kg
Candida albicans [15]
  MFC99: 0.25 µg/mL (≈ 0.639 µM)
Candida albicans [16]
  MIC50: 8 µg/mL (≈ 20.4 µM)
  MIC80: 128 µg/mL (≈ 327 µM)
Candida albicans [17]
  MIC50: 16 µg/mL (≈ 40.9 µM)
  MIC80: > 128 µg/mL
Candida albicans [18]
  MIC50: > 128 µg/mL
  MIC80: > 128 µg/mL
Candida albicans [19]
  MIC50: > 128 µg/mL
  MIC80: > 128 µg/mL
Candida albicans [20]
  Ratio: 8
